Results published in patent US9901558B2, “Enhancer of survival of transplanted organ” (SBI Pharmaceuticals Co., Ltd., priority 2011, dated 2018).

Tested on: heterotopic heart-transplanted model mice
Experiment: Heterotopic homologous heart transplantation in mice (B10 donors to CBA recipients), heart graft beating/survival
Format: in vivo
Details: group (b), n = 5: both donor and recipient mice received ALA (100 mg/kg) alone
From the text: B10 mice (male, 10 weeks old on average, body weight: 20 to 25 g) were used as donors for the hearts to be transplanted. CBA mice (male, 10 weeks old on average, body weight: 20 to 25 g) were used as recipients to receive the hearts taken out of the donors. The procedures of the heterotopic homologous heart transplantation in mice followed the description of Experimental Manual of Organ Transplantation (Shujunsha Co., Ltd.), Paragraph 1, Part 2, 2-1-5 “Heterotopic Heart Transplantation in Mice”. Hereinafter, the procedures will be summarized.
The thorax of each donor mouse was opened under anesthesia and sufficiently perfused using 1 mL of saline supplemented with cold heparin, followed by excision of the heart. The excised heart was preserved in saline supplemented with cold heparin. The abdomen of each recipient mouse was opened under anesthesia, and the heart excised from the donor mouse was transplanted into the abdominal vena cava to prepare heterotopic heart-transplanted model mice.
The heterotopic heart-transplanted model mice were divided into groups (1) to (4) with administration patterns shown in Table 1 below. An experiment was conducted on the oral administration of the agent for promoting graft survival of the present invention. […]

How did the “long-term beating of heart graft” value turn out when `NCC(=O)CCC(=O)O` [ALA, 5-aminolevulinic acid] was run?
The value was “seen in none of these individuals”.
